These compounds were tested on γ-secretase (assay: Cellular γ-secretase assay (inhibition of Aβ42 secretion)). Conditions: human neuroglioma H4 cells overexpressing human APP, incubation for 22 hrs, read-out: IC50 in vitro.
Assay type: cell-based
Protocol: Cellular γ-Secretase Assay
Human neuroglioma H4 cells overexpressing human APP were plated at 30,000 cells/well/200 μl in 96-well plates in IMDM media containing 10% FCS, 0.2 mg/l Hygromycin B and incubated for 2 h at 37° C., 5% CO2 prior to adding test compounds.
Compounds for testing were dissolved in 100% Me2SO yielding in a 10 mM stock solution.
Typically 12 μl of these solutions were further diluted in 1000 μl of IMDM media (w/o FCS,). Sub sequential 1:1 dilutions gave a ten point dose response curve. 100 μl of each dilution was added to the cells in 96-well plates. Appropriate controls using vehicle only and reference compound were applied to this assay. The final concentration of Me2SO was 0.4%.
After incubation for 22 hrs at 37° C., 5% CO2, 50 μl supernatant was transferred into round-bottom 96-well polypropylene plates for detection of Aβ42. 50 μl assay buffer (50 mM Tris/Cl, pH 7.4, 60 mM NaCl, 0.5% BSA, 1% TWEEN 20) was added to the wells followed by the addition of 100 μl of detection antibody (ruthenylated BAP15 0.0625 μg/ml in assay buffer). 50 μl of a premix of capture antibody (biotinylated 6E10 antibody, 1 μg/ml) and Steptavidin-coated magnetic beads (Dynal M-280, 0.125 mg/ml) were preincubated for 1 hr at room temperature before adding the assay plates. Assay plates were incubated on a shaker for 3 hrs at room temperature and finally read in the Bioveris M8 Analyser according to the manufacturer's instructions (Bioveris).
IC50 values for inhibition of Aβ42 secretion were calculated by nonlinear regression fit analysis using XLfit 4.0 software (IDBS).

Row | IC50 [nM] | Structure (SMILES)
1 | 210 | COc1cc(Nc2nc(C)c(Cc3cccc(Cl)c3)s2)ccc1-n1cnc(C)c1 [Example 1, [5-(3-Chloro-benzyl)-4-methyl-thiazol-2-yl]-[3-methoxy-4-(4-methyl-imidazol-1-yl)-phenyl]-amine]
2 | 240 | COc1cc(Nc2nc(C)c(Cc3ccc(Cl)cc3)s2)ccc1-n1cnc(C)c1 [Example 2, [5-(4-Chloro-benzyl)-4-methyl-thiazol-2-yl]-[3-methoxy-4-(4-methyl-imidazol-1-yl)-phenyl]-amine]
3 | 750 | Cc1cn(-c2ccc(Nc3nc(C)c(Cc4cccc(Cl)c4)s3)cc2C#N)cn1 [Example 4, 5-[5-(3-Chloro-benzyl)-4-methyl-thiazol-2-ylamino]-2-(4-methyl-imidazol-1-yl)-benzonitrile]
4 | 870 | COc1cc(Nc2nc(C)c(Cc3ccc(C#N)cc3)s2)ccc1-n1cnc(C)c1 [Example 6, 4-{2-[3-Methoxy-4-(4-methyl-imidazol-1-yl)-phenylamino]-4-methyl-thiazol-5-ylmethyl}-benzonitrile]
5 | 520 | COc1cc(Nc2nc(C)c(Cc3ccccc3Cl)s2)ccc1-n1cnc(C)c1 [Example 7, [5-(2-Chloro-benzyl)-4-methyl-thiazol-2-yl]-[3-methoxy-4-(4-methyl-imidazol-1-yl)-phenyl]-amine]
6 | 570 | COc1cc(Nc2nc(C)c(Cc3ccc(C(C)(C)C)cc3)s2)ccc1-n1cnc(C)c1 [Example 8, [5-(4-tert-Butyl-benzyl)-4-methyl-thiazol-2-yl]-[3-methoxy-4-(4-methyl-imidazol-1-yl)-phenyl]-amine]
7 | 920 | COc1cc(Nc2nc(C)c(Cc3cccc(C(F)(F)F)c3)s2)ccc1-n1cnc(C)c1 [Example 9, [3-Methoxy-4-(4-methyl-imidazol-1-yl)-phenyl]-[4-methyl-5-(3-trifluoromethyl-benzyl)-thiazol-2-yl]-amine]
8 | 900 | COc1ccc(Br)cc1-c1csc(Nc2ccc(-n3cnc(C)c3)c(OC)c2)n1 [Example 16, [4-(5-Bromo-2-methoxy-phenyl)-thiazol-2-yl]-[3-methoxy-4-(4-methyl-imidazol-1-yl)-phenyl]-amine]
9 | 880 | COc1ccc(Br)cc1-c1csc(Nc2ccc(-n3cnc(C)c3)cc2)n1 [Example 21, [4-(5-Bromo-2-methoxy-phenyl)-thiazol-2-yl]-[4-(4-methyl-imidazol-1-yl)-phenyl]-amine]
10 | 790 | COc1ccc(Br)cc1-c1csc(Nc2ccc(-n3ccnc3)c(OC)c2)n1 [Example 22, [4-(5-Bromo-2-methoxy-phenyl)-thiazol-2-yl]-(4-imidazol-1-yl-3-methoxy-phenyl)-amine]
11 | 950 | COc1cc(Nc2nc(CC(=O)Nc3ccc(F)cc3)cs2)ccc1-n1cnc(C)c1 [Example 29, N-(4-Fluoro-phenyl)-2-{2-[3-methoxy-4-(4-methyl-imidazol-1-yl)-phenylamino]-thiazol-4-yl}-acetamide]
12 | 390 | COc1cc(Nc2nc([C@H](CC(C)C)NC(=O)OC(C)(C)C)cs2)ccc1-n1cnc(C)c1 [Example 30, ((S)-1-{2-[3-Methoxy-4-(4-methyl-imidazol-1-yl)-phenylamino]-thiazol-4-yl}-3-methyl-butyl)-carbamic acid tert-butyl ester]
13 | 520 | COc1cc(Nc2nc([C@H](CC(C)C)NC(=O)Cc3ccc(F)cc3)cs2)ccc1-n1cnc(C)c1 [Example 34, 2-(4-Fluoro-phenyl)-N—((S)-1-{2-[3-methoxy-4-(4-methyl-imidazol-1-yl)-phenylamino]-thiazol-4-yl}-3-methyl-butyl)-acetamide]
14 | 410 | COc1cc(Nc2nc([C@H](CC(C)C)NC(=O)c3ccc(F)cc3)cs2)ccc1-n1cnc(C)c1 [Example 37, 4-Fluoro-N—((S)-1-{2-[3-methoxy-4-(4-methyl-imidazol-1-yl)-phenylamino]-thiazol-4-yl}-3-methyl-butyl)-benzamide]
15 | 290 | COc1cc(Nc2nc([C@H](CC(C)C)NC(=O)CC(F)(F)F)cs2)ccc1-n1cnc(C)c1 [Example 38, 3,3,3-Trifluoro-N—((S)-1-{2-[3-methoxy-4-(4-methyl-imidazol-1-yl)-phenylamino]-thiazol-4-yl}-3-methyl-butyl)-propionamide]
16 | 910 | COc1cc(Nc2nc([C@H](CC(C)C)NS(=O)(=O)c3ccc(F)cc3)cs2)ccc1-n1cnc(C)c1 [Example 39, 4-Fluoro-N—((S)-1-{2-[3-methoxy-4-(4-methyl-imidazol-1-yl)-phenylamino]-thiazol-4-yl}-3-methyl-butyl)-benzene sulfonamide]
17 | 550 | COc1cc(Nc2nc([C@H](CC(C)C)NS(=O)(=O)Cc3ccccc3)cs2)ccc1-n1cnc(C)c1 [Example 40, N—((S)-1-{2-[3-Methoxy-4-(4-methyl-imidazol-1-yl)-phenylamino]-thiazol-4-yl}-3-methyl-butyl)-C-phenyl-methanesulfonamide]
18 | 900 | COc1cc(Nc2nc([C@H](CC(C)C)NS(C)(=O)=O)cs2)ccc1-n1cnc(C)c1 [Example 41, N—((S)-1-{2-[3-Methoxy-4-(4-methyl-imidazol-1-yl)-phenylamino]-thiazol-4-yl}-3-methyl-butyl)-methane sulfonamide]
19 | 640 | CCOC(=O)c1sc(Nc2ccc(-n3cnc(C)c3)c(OC)c2)nc1C(F)(F)F [Example 42, 2-[3-Methoxy-4-(4-methyl-imidazol-1-yl)-phenylamino]-4-trifluoromethyl-thiazole-5-carboxylic acid ethyl ester]
20 | 790 | COc1cc(Nc2nc3c(s2)CN(C(=O)OC(C)(C)C)CC3)ccc1-n1cnc(C)c1 [Example 43, 2-[3-Methoxy-4-(4-methyl-imidazol-1-yl)-phenylamino]-6,7-dihydro-4H-thiazolo[5,4-c]pyridine-5-carboxylic acid tert-butyl ester]
21 | 800 | COc1cc(Nc2nc([C@H](Cc3ccccc3)NS(=O)(=O)c3ccc(C)cc3)cs2)ccc1-n1cnc(C)c1 [Example 55, N—((S)-1-{2-[3-Methoxy-4-(4-methyl-imidazol-1-yl)-phenylamino]-thiazol-4-yl}-2-phenyl-ethyl)-4-methyl-benzenesulfonamide]
22 | 570 | COc1cc(Nc2ncc(C(O)c3ccccc3)s2)ccc1-n1cnc(C)c1 (centres unmarked) [Example 62, {2-[3-Methoxy-4-(4-methyl-imidazol-1-yl)-phenylamino]-thiazol-5-yl}-phenyl-methanol]
23 | 890 | COc1cc(Nc2nc(C)c(Cc3ccc(Cl)c(C(F)(F)F)c3)s2)ccc1-n1cnc(C)c1 [Example 68, [5-(4-Chloro-3-trifluoromethyl-benzyl)-4-methyl-thiazol-2-yl]-[3-methoxy-4-(4-methyl-imidazol-1-yl)-phenyl]-amine]
24 | 730 | COc1cc(Nc2nc(C)c(Cc3cccc(OC(F)(F)C(F)F)c3)s2)ccc1-n1cnc(C)c1 [Example 69, [3-Methoxy-4-(4-methyl-imidazol-1-yl)-phenyl]-{4-methyl-5-[3-(1,1,2,2-tetrafluoro-ethoxy)-benzyl]-thiazol-2-yl}-amine]
25 | 710 | COc1cc(Nc2nc(C)c(Cc3ccc(C)c(Cl)c3)s2)ccc1-n1cnc(C)c1 [Example 70, [5-(3-Chloro-4-methyl-benzyl)-4-methyl-thiazol-2-yl]-[3-methoxy-4-(4-methyl-imidazol-1-yl)-phenyl]-amine]
26 | 280 | COc1cc(Nc2nc(C)c(Cc3ccc(Cl)c(Cl)c3)s2)ccc1-n1cnc(C)c1 [Example 71, [5-(3,4-Dichloro-benzyl)-4-methyl-thiazol-2-yl]-[3-methoxy-4-(4-methyl-imidazol-1-yl)-phenyl]-amine]
27 | 340 | COc1cc(Nc2ncc(C(O)c3ccc(Cl)cc3)s2)ccc1-n1cnc(C)c1 (centres unmarked) [Example 76, (4-Chloro-phenyl)-{2-[3-methoxy-4-(4-methyl-imidazol-1-yl)-phenylamino]-thiazol-5-yl}-methanol]
28 | 140 | COc1cc(Nc2nc(C(C)(C)c3ccc(Cl)cc3)cs2)ccc1-n1cnc(C)c1 [Example 77, {4-[1-(4-Chloro-phenyl)-1-methyl-ethyl]-thiazol-2-yl}-[3-methoxy-4-(4-methyl-imidazol-1-yl)-phenyl]-amine]
29 | 680 | COc1cc(Nc2nc(C(C)(C)c3cc(F)c(F)c(F)c3)cs2)ccc1-n1cnc(C)c1 [Example 78, [3-Methoxy-4-(4-methyl-imidazol-1-yl)-phenyl]-{4-[1-methyl-1-(3,4,5-trifluoro-phenyl)-ethyl]-thiazol-2-yl}-amine]

Source: US7910740B2, “Modulators of amyloid beta” (Hoffmann-La Roche Inc., priority 2007, dated 2011)
